Test results from US10471046B2, “Method for treating, preventing, or reducing the risk of skin infection” (Melinta Subsidiary Corp., priority 2014, dated 2019).
Values after ≈ are worked out from the molar mass of the structure shown.

The molecules below were run on S. aureus (assay: Minimum inhibitory concentrations (MICs) for S. aureus of exemplary compounds (Table 2)). Settings: Staphylococcus aureus, minimum inhibitory concentrations for S. aureus; read-out: MICs.
Type: cell-based
In short: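 MICs (μg/mL) against S. aureus come from microtiter-tray dilution susceptibility testing per NCCLS M7-A5, comparing growth with and without compound.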

Q: For `CC(=O)NC[C@H]1CN(c2ccc(-c3ccc(CNC(=O)/C=C/c4cncn(C)c4=O)cc3)c(F)c2)C(=O)O1` [Compound 4007, N-{4′-[5-(S)-(Acetylamino-methyl)-2-oxo-oxazolidin-3-yl]-2′-fluoro-biphenyl-4-ylmethyl}-3-(1-methyl-6-oxo-1,6-dihydro-pyrimidin-5-yl)-acrylamide], which MIC is on record?
A: The MIC was 1 µg/mL (≈ 1.92 µM).

Q: `CC(=O)NC[C@H]1CN(c2ccc(-c3ccc(Cn4cnc(N)n4)cc3)c(F)c2)C(=O)O1` [Compound 1069, N-{3-[4′-(3-Amino-[1,2,4]triazol-1-ylmethyl)-2-fluoro-biphenyl-4-yl]-2-oxo-oxazolidin-5-(S)-ylmethyl}-acetamide] was tested. Which MIC did it give?
A: Its MIC is 1 µg/mL (≈ 2.36 µM).

Q: For `CSCCNc1ncnc2c1ncn2Cc1ccc(-c2ccc(N3C[C@H](CNC(C)=O)OC3=O)cc2F)cc1` [Compound 1108], which MIC is on record?
A: Its MIC is 2 µg/mL (≈ 3.64 µM).

Q: With `CC(=O)NC[C@H]1CN(c2ccc(-c3ccc(CNCCc4ccccn4)cc3)c(F)c2)C(=O)O1` [Compound 4087, N-(3-{2-Fluoro-4′-[(2-pyridin-2-yl-ethylamino)-methyl]-biphenyl-4-yl}-2-oxo-oxazolidin-5-(S)-ylmethyl)-acetamide] as the molecule, how does the MIC read?
A: Its MIC is 4 µg/mL (≈ 8.65 µM).

Q: For `CC(=O)NC[C@H]1CN(c2ccc(-c3ccc(CN4CCC(F)CC4)cc3)c(F)c2)C(=O)O1` [Compound 1094, N-{3-[2-Fluoro-4′-(4-fluoro-piperidin-1-ylmethyl)-biphenyl-4-yl]-2-oxo-oxazolidin-5-(S)-ylmethyl}-acetamide], which MIC is on record?
A: The MIC was 1 µg/mL (≈ 2.25 µM).

Q: `CC(=O)NC[C@H]1CN(c2ccc(-c3ccc(CNCc4ccnc5ccccc45)cc3)c(F)c2)C(=O)O1` [Compound 4016, N-[3-(2-Fluoro-4′-{[(quinolin-4-ylmethyl)-amino]-methyl}-biphenyl-4-yl)-2-oxo-oxazolidin-5-(S)-ylmethyl]-acetamide] was tested. Which MIC did it give?
A: The MIC was 1 µg/mL (≈ 2.01 µM).

Q: How did the MIC turn out when `CC(=O)NC[C@H]1CN(c2ccc(-c3ccc(Cn4ccnn4)c(F)c3)c(F)c2)C(=O)O1` [Compound 1009, N-[3-(2,3′-Difluoro-4′-[1,2,3]triazol-1-ylmethyl-biphenyl-4-yl)-2-oxo-oxazolidin-5-(S)-ylmethyl]-acetamide] was run?
A: Its MIC is 0.25 µg/mL (≈ 0.585 µM).

Q: For `CC(=O)NC[C@H]1CN(c2ccc(-c3ccc(Cn4ccnn4)cc3)c(F)c2)C(=O)O1` [Compound 1015, N-[3-(2-Fluoro-4′-[1,2,3]triazol-1-ylmethyl-biphenyl-4-yl)-2-oxo-oxazolidin-5-(S)-ylmethyl]-acetamide], which MIC is on record?
A: Its MIC is 0.25 µg/mL (≈ 0.611 µM).

Q: For `CC(=O)NC[C@H]1CN(c2ccc(-c3ccc(C(C)NC(C)c4ccncc4)cc3)c(F)c2)C(=O)O1` (mixture of isomers) [Compound 4160, N-(3-{2-Fluoro-4′-[1-(R/S)-(1-pyridin-4-(R/S)-yl-ethylamino)-ethyl]-biphenyl-4-yl}-2-oxo-oxazolidin-5-(S)-ylmethyl)-acetamide], which MIC is on record?
A: The MIC was 8 µg/mL (≈ 16.8 µM).

Q: How did the MIC turn out when `CC(=O)NC[C@H]1CN(c2ccc(-c3ccc(CNCc4ccc(Br)o4)cc3)c(F)c2)C(=O)O1` [Compound 4078, N-[3-(4′-{[(5-Bromo-furan-2-ylmethyl)-amino]-methyl}-2-fluoro-biphenyl-4-yl)-2-oxo-oxazolidin-5-(S)-ylmethyl]-acetamide] was run?
A: The MIC was 2 µg/mL (≈ 3.87 µM).

Q: For `CCN(Cc1ccncc1)Cc1ccc(-c2ccc(N3C[C@H](CNC(C)=O)OC3=O)cc2F)cc1` [Compound 4035, N-(3-{4′-[(Ethyl-pyridin-4-ylmethyl-amino)-methyl]-2-fluoro-biphenyl-4-yl}-2-oxo-oxazolidin-5-(S)-ylmethyl)-acetamide], which MIC is on record?
A: Its MIC is 2 µg/mL (≈ 4.2 µM).

Q: `CC(=O)NC[C@H]1CC(c2ccc(-c3ccc(CNCc4ccncc4)cc3)nc2)=NO1` [Compound 4133, N-{3-[6-(4-{[(Pyridin-4-ylmethyl)-amino]-methyl}-phenyl)-pyridin-3-yl]-4,5-dihydro-isoxazol-5-(R)-ylmethyl}-acetamide] was tested. Which MIC did it give?
A: The MIC was 128 µg/mL (≈ 308 µM).

Q: With `CC(=O)NC[C@H]1CN(c2ccc(-c3ccc(CNC(=O)[C@H](N)c4ccc(F)cc4)cc3)c(F)c2)C(=O)O1` [Compound 4297, N-{4′-[5-(S)-(Acetylamino-methyl)-2-oxo-oxazolidin-3-yl]-2′-fluoro-biphenyl-4-ylmethyl}-2-(R)-amino-2-(4-fluoro-phenyl)-acetamide] as the molecule, how does the MIC read?
A: The MIC was 2 µg/mL (≈ 3.93 µM).

Q: With `CC(=O)NC[C@H]1CN(c2ccc(-c3ccc(CNCc4nn(C)cc4Cl)cc3)c(F)c2)C(=O)O1` [Compound 4139, N-[3-(4′-{[(4-Chloro-1-methyl-1H-pyrazol-3-ylmethyl)-amino]-methyl}-2-fluoro-biphenyl-4-yl)-2-oxo-oxazolidin-5-(S)-ylmethyl]-acetamide] as the molecule, how does the MIC read?
A: Its MIC is 2 µg/mL (≈ 4.12 µM).

Q: For `CC(=O)NC[C@H]1CN(c2ccc(-c3ccc([C@H](O)CN(CCCF)Cc4ccccc4)cc3)c(F)c2)C(=O)O1` [Compound 4247, N-[3-(4′-{2-[Benzyl-(3-fluoro-propyl)-amino]-1-(S)-hydroxy-ethyl}-2-fluoro-biphenyl-4-yl)-2-oxo-oxazolidin-5-(S)-ylmethyl]-acetamide], which MIC is on record?
A: Its MIC is 8 µg/mL (≈ 14.9 µM).

Q: For `CC(=O)NC[C@H]1CN(c2ccc(-c3ccc(Cn4nnc(C(N)=O)c4N)cc3)c(F)c2)C(=O)O1` [Compound 1026, 1-{4′-[5-(S)-(Acetylamino-methyl)-2-oxo-oxazolidin-3-yl]-2′-fluoro-biphenyl-4-ylmethyl}-5-amino-1H-[1,2,3]triazole-4-carboxylic acid amide], which MIC is on record?
A: Its MIC is 2 µg/mL (≈ 4.28 µM).

Q: With `CC(=O)NC[C@H]1CN(c2ccc(-c3ccc(CNCc4c(C(F)(F)F)nn(C)c4Cl)cc3)c(F)c2)C(=O)O1` [Compound 4125, N-[3-(4′-{[(5-Chloro-1-methyl-3-trifluoromethyl-1H-pyrazol-4-ylmethyl)-amino]-methyl}-2-fluoro-biphenyl-4-yl)-2-oxo-oxazolidin-5-(S)-ylmethyl]-acetamide] as the molecule, how does the MIC read?
A: The MIC was 0.5 µg/mL (≈ 0.903 µM).

Q: How did the MIC turn out when `CC(=O)NC[C@H]1CN(c2ccc(-c3ccc(CNCC(=O)N4CCOCC4)cc3)c(F)c2)C(=O)O1` [Compound 4316, N-(3-{2-Fluoro-4′-[(2-morpholin-4-yl-2-oxo-ethylamino)-methyl]-biphenyl-4-yl}-2-oxo-oxazolidin-5-(S)-ylmethyl)-acetamide] was run?
A: Its MIC is 4 µg/mL (≈ 8.26 µM).

Q: With `CC(=O)NC[C@H]1CN(c2ccc(-c3ccc([C@H](O)CN4CCN(C=O)CC4)cc3)c(F)c2)C(=O)O1` [Compound 1044, N-(3-{2-Fluoro-4′-[2-(4-formyl-piperazin-1-yl)-1-(S)-hydroxy-ethyl]-biphenyl-4-yl}-2-oxo-oxazolidin-5-(S)-ylmethyl)-acetamide] as the molecule, how does the MIC read?
A: Its MIC is 0.5 µg/mL (≈ 1.03 µM).

Q: With `CC(=O)NC[C@H]1CN(c2ccc(-c3ccc(CNS(=O)(=O)CCN4C(=O)c5ccccc5C4=O)cc3)c(F)c2)C(=O)O1` [Compound 4136, N-[3-(4′-{[2-(1,3-Dioxo-1,3-dihydro-isoindol-2-yl)-ethanesulfonylamino]-methyl}-2-fluoro-biphenyl-4-yl)-2-oxo-oxazolidin-5-(S)-ylmethyl]-acetamide] as the molecule, how does the MIC read?
A: The MIC was 8 µg/mL (≈ 13.5 µM).

Q: With `CC(=O)NC[C@H]1CN(c2ccc(-c3ccc(CNC[C@H](O)CSc4nnc[nH]4)cc3)c(F)c2)C(=O)O1` [Compound 5011] as the molecule, how does the MIC read?
A: Its MIC is 4 µg/mL (≈ 7.77 µM).

Q: Which MIC does the source give for `CCSc1nnnn1Cc1ccc(-c2ccc(N3C[C@H](CNC(C)=O)OC3=O)cc2F)cc1` [Compound 1081, N-{3-[4′-(5-Ethylsulfanyl-tetrazol-1-ylmethyl)-2-fluoro-biphenyl-4-yl]-2-oxo-oxazolidin-5-(S)-ylmethyl}-acetamide] here?
A: Its MIC is 2 µg/mL (≈ 4.25 µM).

Q: For `CC(=O)NC[C@H]1CN(c2ccc(-c3ccc(CN(C)Cc4ccoc4)cc3)c(F)c2)C(=O)O1` [Compound 4061, N-(3-{2-Fluoro-4′-[(furan-3-ylmethyl-methyl-amino)-methyl]-biphenyl-4-yl}-2-oxo-oxazolidin-5-(S)-ylmethyl)-acetamide], which MIC is on record?
A: The MIC was 4 µg/mL (≈ 8.86 µM).
